Measurements reported in patent publication US11352322B2, “Cyclopropyl-amide compounds as dual LSD1/HDAC inhibitors” (Jubilant Epicore LLC, priority 2016, dated 2022).
Where a name gives a salt, the structure may show the parent alone. Read-outs that look alike come from different tables or passages of the source.

How the values were obtained:
[1] = Metabolic stability in liver microsomes, HLM; settings: 1 μM, NADPH
Procedure: (§1) The microsomal suspension was prepared by adding liver microsomes to 100 mM potassium phosphate buffer (pH7.4) to give a final protein concentration of 0.5 mg/mL. The stock solution of NCE (10 mM in DMSO) was added to the microsomes to provide a final concentration of 1 μM. […] Samples were vortexed and centrifuged at 5,000 rpm for 10 min to remove proteins. Supernatant were analyzed on LC-MS/MS.

LSD1 = LSD1 (Homo sapiens (Human), UniProt O60341); experiment: TR-FRET Assay for LSD1; settings: read-out: LSD1 IC50
Procedure: TR-FRET Assay for LSD1 (Perkin Elmer)
Tranylcypromine (TCP), LSD1 inhibitor was procured from Selleckchem. […] Stop Solution containing 300 μM tranylcypromine in 1× LANCE Detection Buffer was added to the wells and incubated for 5 min at RT. Then, Detection mix containing 2 nM Eu-Ab and 50 nM ULight-Streptavidin in 1× LANCE Detection Buffer was prepared and added to the reaction mix. This mixture was incubated for 1 hour at room temperature.

MM1S = experiment: Anticancer activity: Alamar Blue assay, MM1S; format: cell-based; settings: Homo sapiens, MM1.S, read-out: MM1S EC50
[2] = Metabolic stability in liver microsomes, MLM; settings: 1 μM, NADPH
Procedure: as §1

[3] = molecular target: HDAC6 human recombinant enzyme (Homo sapiens (Human), UniProt Q9UBN7); experiment: Histone Deacetylase Assay (BPS Biosciences), HDAC6; format: biochemical
Sequence of HDAC6 human recombinant enzyme (Q9UBN7 whole entry): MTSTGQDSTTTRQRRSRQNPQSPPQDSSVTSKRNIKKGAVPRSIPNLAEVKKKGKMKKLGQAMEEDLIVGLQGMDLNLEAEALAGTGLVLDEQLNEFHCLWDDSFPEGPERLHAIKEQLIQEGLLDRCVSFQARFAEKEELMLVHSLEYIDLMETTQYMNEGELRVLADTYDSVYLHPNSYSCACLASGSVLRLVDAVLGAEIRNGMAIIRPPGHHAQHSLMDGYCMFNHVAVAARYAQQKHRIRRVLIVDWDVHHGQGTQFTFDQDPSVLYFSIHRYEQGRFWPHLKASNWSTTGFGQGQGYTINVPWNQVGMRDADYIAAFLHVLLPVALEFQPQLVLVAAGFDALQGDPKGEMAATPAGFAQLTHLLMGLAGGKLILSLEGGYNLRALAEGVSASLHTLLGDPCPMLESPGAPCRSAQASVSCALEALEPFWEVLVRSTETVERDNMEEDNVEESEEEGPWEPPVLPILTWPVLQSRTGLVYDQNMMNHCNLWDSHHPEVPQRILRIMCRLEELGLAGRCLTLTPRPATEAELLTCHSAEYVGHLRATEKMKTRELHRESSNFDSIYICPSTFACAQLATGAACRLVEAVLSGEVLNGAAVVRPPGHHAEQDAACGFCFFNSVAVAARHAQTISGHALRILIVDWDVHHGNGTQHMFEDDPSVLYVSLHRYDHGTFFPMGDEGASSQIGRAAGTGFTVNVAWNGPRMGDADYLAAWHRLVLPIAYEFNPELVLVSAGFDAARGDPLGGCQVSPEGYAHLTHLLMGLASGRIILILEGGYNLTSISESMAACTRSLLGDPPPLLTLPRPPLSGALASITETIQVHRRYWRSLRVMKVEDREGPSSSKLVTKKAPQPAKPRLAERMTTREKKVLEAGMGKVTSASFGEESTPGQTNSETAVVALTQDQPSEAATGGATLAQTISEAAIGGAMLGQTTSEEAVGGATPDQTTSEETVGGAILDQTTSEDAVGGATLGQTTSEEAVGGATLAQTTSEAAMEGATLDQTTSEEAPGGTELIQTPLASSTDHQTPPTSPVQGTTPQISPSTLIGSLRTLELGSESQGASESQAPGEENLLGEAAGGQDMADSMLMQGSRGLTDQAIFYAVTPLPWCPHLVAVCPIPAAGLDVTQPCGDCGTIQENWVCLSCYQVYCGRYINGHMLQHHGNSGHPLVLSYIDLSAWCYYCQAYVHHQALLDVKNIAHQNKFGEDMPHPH
Excerpt: Histone Deacetylase Assay (BPS Biosciences)
Histone deacetylase assay was done as per manufacturer's instructions.

SMILES | Metabolic stability HLM % remaining in 30 min [1] [%] | IC50 (LSD1) [nM] | EC50 (MM1S) [nM] | Metabolic stability MLM % remaining in 30 min [2] [%] | EC50 (MM1S; MM1S cells) [nM] | IC50 [3] [nM]
O=C(/C=C/c1ccc(CNC2CC2c2ccc(-c3cncnc3)cc2)cc1)NO (stereo not drawn) [Example 7, (E)-N-hydroxy-3-(4-(((2-(4-(pyrimidin-5-yl)phenyl)cyclopropyl)amino)methyl)phenyl)acrylamide TFA Salt] | 70 | 27 | 48 | < 5 | – | –
O=C(NO)c1ccc(N2CCC(CNC3CC3c3ccc(F)cc3)CC2)cc1 (stereo not drawn) [Example 22, 4-(4-(((2-(4-fluorophenyl)cyclopropyl)amino)methyl)piperidin-1-yl)-N-hydroxybenzamide TFA Salt] | 60 | 6400 | 44 | 38 | – | –
O=C(NO)c1ccc(CNC2CC2c2ccccc2)cc1 (stereo not drawn) [Example 28, N-hydroxy-4-(((2-phenylcyclopropyl)amino)methyl)benzamide TFA Salt] | 73 | 23 | – | 35 | – | –
Cc1noc(C)c1-c1ccc(C2CC2NCC2CCN(Cc3ccc(C(=O)NO)cc3)CC2)cc1 (stereo not drawn) [Example 37, 4-((4-(((2-(4-(3,5-dimethylisoxazol-4-yl)phenyl)cyclopropyl)amino)methyl)piperidin-1-yl)methyl)-N-hydroxybenzamide TFA salt] | 86 | 43 | 1730 | 55 | – | –
O=C(NO)c1ccc(CN2CCC(CNC3CC3c3ccc(-c4cncnc4)cc3)CC2)cc1 (stereo not drawn) [Example 38, N-hydroxy-4-((4-(((2-(4-(pyrimidin-5-yl)phenyl)cyclopropyl)amino)methyl)piperidin-1-yl)methyl)benzamide TFA Salt] | 87 | 53 | 3640 | > 95 | – | –
Cc1noc(C)c1-c1ccc(C2CC2NCC2CCN(Cc3ccc(C(=O)NO)cn3)CC2)cc1 (stereo not drawn) [Example 39, 6-((4-(((2-(4-(3,5-dimethylisoxazol-4-yl)phenyl)cyclopropyl)amino)methyl)piperidin-1-yl)methyl)-N-hydroxynicotinamide TFA Salt] | 87 | 34 | 2970 | > 95 | – | –
CN(CC1CCN(CCCc2ccc(C(=O)NO)cc2)CC1)C1CC1c1ccccc1 (stereo not drawn) [Example 45, N-hydroxy-4-(3-(4-((methyl (2-phenylcyclopropyl)amino)methyl)piperidin-1-yl)propyl) benzamide TFA Salt] | – | 465 | – | – | 48 | –
O=C(NO)c1ccc(CCCN2CCC(CNC3CC3c3ccc(F)c(F)c3)CC2)cc1 (stereo not drawn) [Example 50, 4-(3-(4-(((2-(3,4-difluorophenyl)cyclopropyl)amino)methyl)piperidin-1-yl)propyl)-N-hydroxybenzamide TFA Salt] | 86 | 29 | 35 | 80 | – | –
O=C(NO)c1ccc(CCCN2CCC(CNC3CC3c3ccc(C(=O)N4CCOCC4)cc3)CC2)cc1 (stereo not drawn) [Example 53, N-hydroxy-4-(3-(4-(((2-(4-(morpholine-4-carbonyl)phenyl)cyclopropyl)amino)methyl)piperidin-1-yl)propyl)benzamide TFA Salt] | 89 | 22 | – | 82 | – | –
O=C(NO)c1ccc(CCCN2CCC(CNC3CC3c3ccc(C(=O)N4CCCCC4)cc3)CC2)cc1 (stereo not drawn) [Example 54, N-hydroxy-4-(3-(4-(((2-(4-(piperidine-1-carbonyl)phenyl)cyclopropyl)amino)methyl)piperidin-1-yl)propyl)benzamide TFA Salt] | 65 | 23 | – | 72 | – | –
N#Cc1ccc(-c2ccc(C3CC3NCC3CCN(CCCc4ccc(C(=O)NO)cc4)CC3)cc2)cc1 (stereo not drawn) [Example 59, 4-(3-(4-(((2-(4′-cyano-[1,1′-biphenyl]-4-yl)cyclopropyl)amino)methyl)piperidin-1-yl)propyl)-N-hydroxybenzamide TFA Salt] | 76 | 32 | – | 75 | – | –
Cn1cc(-c2ccc(C3CC3NCC3CN(CCCc4ccc(C(=O)NO)cc4)C3)cc2)cn1 (stereo not drawn) [Example 63, N-hydroxy-4-(3-(3-(((2-(4-(1-methyl-1H-pyrazol-4-yl)phenyl)cyclopropyl)amino)methyl)azetidin-1-yl)propyl)benzamide TFA Salt] | 86 | 31 | 191 | 69 | – | –
O=C(NO)c1ccc(CCC(=O)N2CCC(NC3CC3c3ccccc3)CC2)cc1 (stereo not drawn) [Example 83, N-hydroxy-4-(3-oxo-3-(4-((2-phenylcyclopropyl)amino)piperidin-1-yl)propyl)benzamide TFA Salt] | 69 | 90 | 153 | 82 | – | –
O=C(NO)c1ccc(CS(=O)(=O)NCCN2CCC(CNC3CC3c3ccccc3)CC2)cc1 (stereo not drawn) [Example 86, N-hydroxy-4-((N-(2-(4-(((2-phenylcyclopropyl)amino)methyl)piperidin-1-yl)ethyl)sulfamoyl)methyl)benzamide TFA Salt] | 71 | 18 | 676 | 58 | – | –
O=C(NO)c1cc2c(s1)CCN(C(=O)CCCNC1CC1c1ccc(F)cc1)C2 (stereo not drawn) [Example 105, 5-(4-((2-(4-fluorophenyl)cyclopropyl)amino)butanoyl)-N-hydroxy-4,5,6,7-tetrahydrothieno[3,2-c]pyridine-2-carboxamide TFA Salt] | 77 | – | 13 | 72 | – | 18
O=C(NO)c1ccc2c(c1)CN(C(=O)CCCNC1CC1c1ccc(F)cc1)CC2 (stereo not drawn) [Example 107, 2-(4-((2-(4-fluorophenyl)cyclopropyl)amino)butanoyl)-N-hydroxy-1,2,3,4-tetrahydroisoquinoline-7-carboxamide TFA Salt] | 83 | – | 78 | 67 | – | 85
O=C(NO)c1ccc(/C=C/C(=O)N2CCC(CNC3CC3c3ccccc3)CC2)cc1 (stereo not drawn) [Example 114, (E)-N-hydroxy-4-(3-oxo-3-(4-(((2-phenylcyclopropyl)amino)methyl)piperidin-1-yl)prop-1-en-1-yl)benzamide TFA Salt] | 83 | – | 44 | 56 | – | 68
O=C(NO)c1ccc(/C=C/C(=O)N2CCC(CN[C@@H]3C[C@H]3c3ccccc3)CC2)cc1 [Example 114A, N-hydroxy-4-((E)-3-oxo-3-(4-((((1R,2S)-2-phenylcyclopropyl)amino)methyl)piperidin-1-yl)prop-1-en-1-yl)benzamide TFA Salt] | 67 | – | 14 | 62 | – | 38
O=C(NO)c1ccc(/C=C/C(=O)N2CCC(CN[C@H]3C[C@@H]3c3ccccc3)CC2)cc1 [Example 114B, N-hydroxy-4-((E)-3-oxo-3-(4-((((1S,2R)-2-phenylcyclopropyl)amino)methyl)piperidin-1-yl)prop-1-en-1-yl)benzamide TFA Salt] | 73 | – | 97 | 43 | – | 33
Nc1ccccc1NC(=O)c1ccc(CCCn2cnc(CNC3CC3c3ccc(F)c(F)c3)c2)cc1 (stereo not drawn) [Example 135, N-(2-aminophenyl)-4-(3-(4-(((2-(3,4-difluorophenyl)cyclopropyl)amino)methyl)-1H-imidazol-1-yl)propyl)benzamide TFA Salt] | 2 | – | 247 | 8 | – | > 10000
Nc1ccccc1NC(=O)c1cc2c(s1)CCN(C(=O)CNC1CC1c1ccc(F)cc1)C2 (stereo not drawn) [Example 151, N-(2-aminophenyl)-5-((2-(4-fluorophenyl)cyclopropyl)glycyl)-4,5,6,7-tetrahydrothieno[3,2-c]pyridine-2-carboxamide TFA Salt] | 30 | – | 345 | 18 | – | > 10000
Nc1ccccc1NC(=O)c1ccc2c(c1)CN(C(=O)CNC1CC1c1ccc(F)cc1)CC2 (stereo not drawn) [Example 152, N-(2-aminophenyl)-2-(2-((2-(4-fluorophenyl)cyclopropyl)amino)acetyl)-1,2,3,4-tetrahydroisoquinoline-7-carboxamide TFA Salt] | 36 | – | 566 | 31 | – | > 10000
Nc1ccccc1NC(=O)c1ccc(CNC(=O)CNC2CC2c2ccc(F)cc2)cc1 (stereo not drawn) [Example 155, N-(2-aminophenyl)-4-((2-((2-(4-fluorophenyl)cyclopropyl)amino)acetamido)methyl)benzamide TFA Salt] | 46 | – | 42 | 34 | – | > 10000
Nc1ccccc1NC(=O)c1ccc(CNC(=O)N2CCC(CNC3CC3c3ccc(F)cc3)CC2)cc1 (stereo not drawn) [Example 158, N-(4-((2-aminophenyl)carbamoyl)benzyl)-4-(((2-(4-fluorophenyl)cyclopropyl)amino)methyl)piperidine-1-carboxamide TFA Salt] | 50 | – | 58 | < 5 | – | > 10000
